Data published in ChEMBL document CHEMBL1201862, “PubChem BioAssay data set” (2004).
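Following 48 hours of exposure in 96-well plates, responses at five concentrations were used to interpolate endpoints linearly. Here, GI50 denotes the concentration required for 50% inhibition of growth.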 Calls of active or inactive are those of the source. Rule as the data show it: active = GI50 up to about 1.1 µM and inactive = higher.

Experiments:
Assay in all cases: NCI-60 cell line screen, 48 h
[1] = tested on: K562
[2] = tested on: CAKI-1
[3] = tested on: NCI-H226
[4] = tested on: NCI-H522
[5] = tested on: OVCAR-3
[6] = tested on: KM12
[7] = tested on: Malme-3M
[8] = tested on: 786-0
[9] = tested on: CCRF-CEM
[10] = tested on: SK-MEL-5
[11] = tested on: EKVX
[12] = tested on: SK-MEL-2
[13] = tested on: MDA-N
[14] = tested on: SW-620
[15] = tested on: UACC-62
[16] = tested on: SR
[17] = tested on: SN12C
[18] = tested on: HT-29
[19] = tested on: COLO 205
[20] = tested on: SF-268
[21] = tested on: U-251
[22] = tested on: A549
[23] = tested on: BT-549
[24] = tested on: SNB-75
[25] = tested on: HOP-62
[26] = tested on: M14
[27] = tested on: IGROV-1
[28] = tested on: NCI/ADR-RES
[29] = tested on: PC-3
[30] = tested on: MDA-MB-231
[31] = tested on: UO-31
[32] = tested on: MOLT-4
[33] = tested on: T47D
[34] = tested on: RXF 393
[35] = tested on: OVCAR-8
[36] = tested on: A498
[37] = tested on: SNB-19
[38] = tested on: HCT-116
[39] = tested on: SK-OV-3
[40] = tested on: SK-MEL-28
[41] = tested on: RPMI-8226
[42] = tested on: SF-295
[43] = tested on: OVCAR-5
[44] = tested on: MCF7
[45] = tested on: DU-145
[46] = tested on: Hs-578T
[47] = tested on: LOX IMVI
[48] = tested on: MDA-MB-435
[49] = tested on: ACHN
[50] = tested on: HCT-15
[51] = tested on: OVCAR-4
[52] = tested on: UACC-257
[53] = tested on: TK-10
[54] = tested on: SF-539
[55] = tested on: HL-60
[56] = tested on: NCI-H460
[57] = tested on: NCI-H23

With `C[N+]12C=CC=C1C(N1CCCC1)c1scc(-c3ccc(F)cc3)c12` (centres undefined) as the molecule, how does the GI50 [1] read?
Its GI50 is 5.74 µM (inactive).

And the GI50 [2]?
The GI50 was > 100 µM (inactive).

What about the GI50 [3] of the same molecule?
The GI50 was 23.5 µM (inactive).

What about the GI50 [4] of the same molecule?
Its GI50 is 17.6 µM (inactive).

And the GI50 [5]?
The GI50 was 14.6 µM (inactive).

What about the GI50 [6] of the same molecule?
Its GI50 is 23.8 µM (inactive).

And the GI50 [7]?
Its GI50 is 60.4 µM (inactive).

And the GI50 [8]?
Its GI50 is 47.2 µM (inactive).

And the GI50 [9]?
Its GI50 is 1.89 µM (inactive).

And the GI50 [10]?
The GI50 was 13.5 µM (inactive).

What about the GI50 [11] of the same molecule?
Its GI50 is 92.3 µM (inactive).

And the GI50 [12]?
Its GI50 is 10.5 µM (inactive).

And the GI50 [13]?
The GI50 was 17.1 µM (inactive).

And the GI50 [14]?
Its GI50 is 68.2 µM (inactive).

What about the GI50 [15] of the same molecule?
The GI50 was 35.4 µM (inactive).

And the GI50 [16]?
The GI50 was 11 µM (inactive).

And the GI50 [17]?
The GI50 was 11.1 µM (inactive).

What about the GI50 [18] of the same molecule?
The GI50 was 18.3 µM (inactive).

And the GI50 [19]?
The GI50 was 18.7 µM (inactive).

What about the GI50 [20] of the same molecule?
Its GI50 is 32.4 µM (inactive).

What about the GI50 [21] of the same molecule?
The GI50 was 6.71 µM (inactive).

And the GI50 [22]?
Its GI50 is 56 µM (inactive).

What about the GI50 [23] of the same molecule?
Its GI50 is 4.89 µM (inactive).

And the GI50 [24]?
The GI50 was 20.4 µM (inactive).

What about the GI50 [25] of the same molecule?
Its GI50 is 63.7 µM (inactive).

What about the GI50 [26] of the same molecule?
The GI50 was 69.8 µM (inactive).

And the GI50 [27]?
Its GI50 is 13.1 µM (inactive).

And the GI50 [28]?
Its GI50 is > 100 µM (inactive).

What about the GI50 [29] of the same molecule?
The GI50 was 27.1 µM (inactive).

And the GI50 [30]?
The GI50 was 42.2 µM (inactive).

What about the GI50 [31] of the same molecule?
The GI50 was > 100 µM (inactive).

And the GI50 [32]?
The GI50 was 21.6 µM (inactive).

What about the GI50 [33] of the same molecule?
Its GI50 is 5.93 µM (inactive).

What about the GI50 [34] of the same molecule?
The GI50 was 24.5 µM (inactive).

What about the GI50 [35] of the same molecule?
Its GI50 is 40.4 µM (inactive).

And the GI50 [36]?
The GI50 was 43.3 µM (inactive).

What about the GI50 [37] of the same molecule?
Its GI50 is 15.1 µM (inactive).

What about the GI50 [38] of the same molecule?
Its GI50 is 46.2 µM (inactive).

And the GI50 [39]?
Its GI50 is > 100 µM (inactive).

And the GI50 [40]?
Its GI50 is 66.5 µM (inactive).

What about the GI50 [41] of the same molecule?
The GI50 was 10.4 µM (inactive).

What about the GI50 [42] of the same molecule?
Its GI50 is 58.7 µM (inactive).

What about the GI50 [43] of the same molecule?
The GI50 was 32.4 µM (inactive).

And the GI50 [44]?
Its GI50 is 22 µM (inactive).

What about the GI50 [45] of the same molecule?
Its GI50 is 81.7 µM (inactive).

And the GI50 [46]?
Its GI50 is 21.5 µM (inactive).

And the GI50 [47]?
The GI50 was 40.8 µM (inactive).

And the GI50 [48]?
Its GI50 is 30.6 µM (inactive).

`COC(=O)/C=C(\S/C(=C(/c1ccc(OC)cc1)n1cc(C(=O)OC)c(C(=O)OC)n1)c1ccc(OC)cc1)C(=O)OC` was tested. Which GI50 [1] did it give?
Its GI50 is 6.5 µM (inactive).

And the GI50 [2]?
Its GI50 is 2.58 µM (inactive).

And the GI50 [3]?
The GI50 was 48.6 µM (inactive).

And the GI50 [5]?
Its GI50 is 3.42 µM (inactive).

And the GI50 [6]?
Its GI50 is 76.2 µM (inactive).

What about the GI50 [7] of the same molecule?
Its GI50 is 13.7 µM (inactive).

And the GI50 [8]?
Its GI50 is 5.36 µM (inactive).

And the GI50 [9]?
Its GI50 is 0.399 µM (active).

And the GI50 [10]?
Its GI50 is 35.5 µM (inactive).

What about the GI50 [11] of the same molecule?
Its GI50 is 21.6 µM (inactive).

And the GI50 [12]?
Its GI50 is 32.6 µM (inactive).

And the GI50 [13]?
Its GI50 is 19.6 µM (inactive).

What about the GI50 [14] of the same molecule?
Its GI50 is 7.06 µM (inactive).

And the GI50 [15]?
The GI50 was 34.9 µM (inactive).

What about the GI50 [16] of the same molecule?
The GI50 was 2.77 µM (inactive).

And the GI50 [17]?
Its GI50 is 15.5 µM (inactive).

And the GI50 [18]?
The GI50 was 8.04 µM (inactive).

What about the GI50 [19] of the same molecule?
Its GI50 is 3.01 µM (inactive).

What about the GI50 [49] of the same molecule?
The GI50 was 5.13 µM (inactive).

And the GI50 [50]?
The GI50 was 6.43 µM.

What about the GI50 [20] of the same molecule?
Its GI50 is 17.1 µM (inactive).

And the GI50 [21]?
The GI50 was 33.6 µM (inactive).

And the GI50 [22]?
Its GI50 is 77.6 µM (inactive).

And the GI50 [23]?
The GI50 was 65.3 µM (inactive).

What about the GI50 [24] of the same molecule?
The GI50 was 55.1 µM (inactive).

And the GI50 [25]?
Its GI50 is 44.9 µM (inactive).

And the GI50 [51]?
Its GI50 is 19.4 µM (inactive).

And the GI50 [52]?
Its GI50 is 8.49 µM (inactive).

What about the GI50 [26] of the same molecule?
The GI50 was 21.6 µM (inactive).

What about the GI50 [53] of the same molecule?
The GI50 was 4.33 µM (inactive).

What about the GI50 [27] of the same molecule?
Its GI50 is 6.4 µM (inactive).

What about the GI50 [28] of the same molecule?
The GI50 was 28.7 µM (inactive).

And the GI50 [29]?
Its GI50 is 26.6 µM (inactive).

And the GI50 [30]?
The GI50 was > 100 µM (inactive).

And the GI50 [31]?
The GI50 was 4.14 µM (inactive).

And the GI50 [32]?
Its GI50 is 2.78 µM (inactive).

And the GI50 [33]?
The GI50 was 3.02 µM (inactive).

What about the GI50 [54] of the same molecule?
Its GI50 is 21.6 µM (inactive).

What about the GI50 [34] of the same molecule?
Its GI50 is 12.6 µM (inactive).

What about the GI50 [35] of the same molecule?
Its GI50 is 2.11 µM (inactive).

What about the GI50 [36] of the same molecule?
The GI50 was > 100 µM (inactive).

What about the GI50 [37] of the same molecule?
The GI50 was 51.8 µM (inactive).

And the GI50 [38]?
The GI50 was 9.98 µM (inactive).

What about the GI50 [55] of the same molecule?
The GI50 was 2.7 µM (inactive).

What about the GI50 [39] of the same molecule?
Its GI50 is > 100 µM (inactive).

What about the GI50 [40] of the same molecule?
The GI50 was 3.08 µM (inactive).

And the GI50 [56]?
Its GI50 is 35.9 µM (inactive).

And the GI50 [41]?
Its GI50 is 38.3 µM (inactive).

What about the GI50 [42] of the same molecule?
Its GI50 is > 100 µM (inactive).

What about the GI50 [43] of the same molecule?
Its GI50 is 27.1 µM (inactive).

What about the GI50 [44] of the same molecule?
Its GI50 is 5.62 µM (inactive).

And the GI50 [45]?
Its GI50 is 15.6 µM (inactive).

What about the GI50 [46] of the same molecule?
Its GI50 is 47.9 µM (inactive).

And the GI50 [57]?
The GI50 was 37.2 µM (inactive).

What about the GI50 [47] of the same molecule?
Its GI50 is 9.35 µM (inactive).

What about the GI50 [48] of the same molecule?
The GI50 was 16.7 µM (inactive).
